According to the supplement of paper PMC10307832:

How the values were obtained:
Assay in all cases: relative viability (nuclei count vs DMSO), 5 days (fraction); higher = more cells survive
[1] = compound: C/C(=N\NC(=S)N1CCC1)/C2=CC=CC=N2 + O=C(CCCCCCC(=O)Nc1ccccc1)NO [Vorinostat] (partner 1 µM)
Procedure, shortened: (§1)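 Relative viability equals treated-well nuclei counts divided by vehicle-well nuclei counts. Counts came from 4× images of lung cancer cell lines grown in 1536-well plates for 5 days after pin-tool dosing on the day after seeding. Dosing used one drug alone or a fixed anchor-drug dose plus five library-drug doses (not always all listed) in √10 steps, and values are medians of duplicate plates.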

[2] = compound: C/C(=N\NC(=S)N1CCC1)/C2=CC=CC=N2 + O=C(c1cc(Cc2n[nH]c(=O)c3ccccc23)ccc1F)N1CCN(C(=O)C2CC2)CC1 [Olaparib] (partner 8 µM)
Procedure, shortened: as §1

[3] = compound: C/C(=N\NC(=S)N1CCC1)/C2=CC=CC=N2 + Nc1nc2[nH]cc(CCc3ccc(C(=O)N[C@@H](CCC(=O)O)C(=O)O)cc3)c2c(=O)[nH]1 [Pemetrexed] (partner 0.2 µM)
Procedure, shortened: as §1

[4] = compound: C/C(=N\NC(=S)N1CCC1)/C2=CC=CC=N2 + C[C@]1(O)C[C@@H](c2nc(-c3ccc4ccc(-c5ccccc5)nc4c3)c3c(N)nccn32)C1 [Linsitinib] (partner 1 µM)
Procedure, shortened: as §1

Cell Line	relative viability ([1]; first compound 0.05 µM)	relative viability ([1]; first compound 0.1581 µM)	relative viability ([1]; first compound 0.5 µM)	relative viability ([1]; first compound 1.581 µM)	relative viability ([1]; first compound 5 µM)	relative viability ([2]; first compound 0.05 µM)	relative viability ([2]; first compound 0.1581 µM)	relative viability ([2]; first compound 0.5 µM)	relative viability ([2]; first compound 1.581 µM)	relative viability ([2]; first compound 5 µM)	relative viability ([3]; first compound 0.05 µM)	relative viability ([3]; first compound 0.1581 µM)	relative viability ([3]; first compound 0.5 µM)	relative viability ([3]; first compound 1.581 µM)	relative viability ([3]; first compound 5 µM)	relative viability ([4]; first compound 0.05 µM)	relative viability ([4]; first compound 0.1581 µM)	relative viability ([4]; first compound 0.5 µM)	relative viability ([4]; first compound 1.581 µM)	relative viability ([4]; first compound 5 µM)
201T	0.351	0.349	0.315	0.301	0.281	0.487	0.871	0.349	0.241	0.247	0.292	0.315	0.289	0.294	0.286	0.742	1	0.564	0.503	0.41
A-427	0.187	0.198	0.171	0.158	0.186	0.2	0.191	0.151	0.154	0.167	0.191	0.209	0.195	0.151	0.188	0.18	0.687	0.148	0.157	0.139
ABC-1	0.268	0.339	0.308	0.275	0.302	0.349	0.338	0.301	0.345	0.438						0.247	0.239	0.24	0.221	0.207
BEN	0.233	0.293	0.296	0.281	0.3	0.292	0.259	0.271	0.272	0.283	0.256	0.318	0.262	0.279	0.311	0.168	0.171	0.167	0.174	0.189
CAL-12T	0.0882	0.112	0.127	0.101	0.114	0.16	0.149	0.185	0.171	0.131	0.14	0.132	0.173	0.143	0.122	0.167	0.165	0.13	0.16	0.142
COR-L23	0.11	0.099	0.0957	0.0832	0.0963	0.107	0.0921	0.0895	0.0916	0.105	0.149	0.169	0.163	0.105	0.123	0.129	0.11	0.106	0.0712	0.0637
COR-L 105	0.345	0.346	0.345	0.304	0.291	0.365	0.381	0.374	0.337	0.318	0.399	0.389	0.326	0.358	0.335	0.343	0.265	0.265	0.332	0.261
Calu-6						0.101	0.133	0.141	0.118	0.122						0.11	0.1	0.127	0.115	0.108
ChaGo-K-1	0.164	0.159	0.155	0.143	0.165	0.137	0.247	0.126	0.138	0.135	0.172	0.171	0.18	0.161	0.162					
EBC-1						0.163	0.164	0.152	0.131	0.13						0.13	0.19	0.137	0.0985	0.11
EKVX	0.196	0.223	0.186	0.205	0.221	0.149	0.115	0.121	0.16	0.167	0.148	0.163	0.0961	0.166	0.175	0.141	0.122	0.0907	0.135	0.141
EMC-BAC-2	0.193	0.199	0.134	0.153	0.135	0.188	0.22	0.195	0.164	0.203	0.26	0.255	0.275	0.228	0.259	0.365	0.56	0.144	0.178	0.191
EPLC-272H	0.0931	0.159	0.149	0.0509	0.107	0.114	0.13	0.0724	0.0602	0.131	0.165	0.179	0.149	0.0756	0.265	0.16	0.424	0.173	0.149	0.16
H3255	0.334	0.288	0.179	0.274	0.289	0.353	0.321	0.292	0.235	0.254	0.359	0.349	0.355	0.268	0.255	0.278	0.269	0.276	0.197	0.21
HARA	0.0948	0.381	0.0375	0.076	0.0809	0.433	0.192	0.13	0.119	0.13	0.218	0.174	0.212	0.141	0.165	0.212	0.0896	0.163	0.109	0.08
HCC-15	0.204	0.275	0.145	0.139	0.116	0.299	0.259	0.103	0.102	0.101	0.198	0.11	0.13	0.113	0.093	0.237	0.416	0.103	0.102	0.0909
HCC-44	0.894	1.02	0.51	0.471	0.411	0.863	0.918	0.541	0.517	0.446	0.599	0.52	0.549	0.547	0.424	0.553	0.141	0.143	0.154	0.183
HCC-78	0.427	0.414	0.338	0.23	0.231	0.523	0.379	0.32	0.249	0.211	0.96	0.872	0.854	0.84	0.863	0.299	0.251	0.189	0.161	0.175
HCC-366	0.0207	0.0269	0.0257	0.0337	0.0244	0.119	0.0248	0.0175	0.0198	0.0219	0.0318	0.0443	0.0286	0.0295	0.0319	0.0558	0.0147	0.0179	0.0206	0.0189

Cell Line	relative viability ([1]; first compound 0.05 µM)	relative viability ([1]; first compound 0.1581 µM)	relative viability ([1]; first compound 0.5 µM)	relative viability ([1]; first compound 1.581 µM)	relative viability ([1]; first compound 5 µM)	relative viability ([2]; first compound 0.05 µM)	relative viability ([2]; first compound 0.1581 µM)	relative viability ([2]; first compound 0.5 µM)	relative viability ([2]; first compound 1.581 µM)	relative viability ([2]; first compound 5 µM)	relative viability ([3]; first compound 0.05 µM)	relative viability ([3]; first compound 0.1581 µM)	relative viability ([3]; first compound 0.5 µM)	relative viability ([3]; first compound 1.581 µM)	relative viability ([3]; first compound 5 µM)	relative viability ([4]; first compound 0.05 µM)	relative viability ([4]; first compound 0.1581 µM)	relative viability ([4]; first compound 0.5 µM)	relative viability ([4]; first compound 1.581 µM)	relative viability ([4]; first compound 5 µM)
HCC-827	0.251	0.214	0.18	0.233	0.149	0.333	0.227	0.203	0.145	0.175	0.224	0.225	0.259	0.152	0.171	0.716	0.968	0.338	0.3	0.187
HOP-62	0.0518	0.0592	0.0621	0.0833	0.0796	0.079	0.0776	0.0561	0.0753	0.0802	0.0662	0.0706	0.0806	0.128	0.0892	0.162	0.968	0.0703	0.0888	0.0655
IA-LM	0.0691	0.0691	0.0591	0.059	0.051	0.115	0.107	0.101	0.0716	0.0719						0.0757	0.0841	0.0585	0.0612	0.0387
LC-2-ad	0.197	0.172	0.191	0.185	0.17	0.234	0.21	0.199	0.196	0.2	0.202	0.218	0.217	0.217	0.192	0.131	0.155	0.11	0.099	0.146
LCLC-97TM1	0.071	0.0753	0.0572	0.0546	0.0434	0.0715	0.422	0.0519	0.0494	0.0514	0.0782	0.0748	0.0673	0.068	0.0595	0.117	0.176	0.1	0.105	0.108
LCLC-103H	0.344	0.321	0.286	0.254	0.296	0.3	0.613	0.222	0.236	0.256	0.321	0.301	0.328	0.253	0.325	0.389	0.99	0.262	0.309	0.238
LK-2	0.117	0.143	0.145	0.169	0.127	0.076	0.14	0.104	0.0854	0.0916	0.0705	0.123	0.0631	0.1	0.0756	0.14	0.154	0.18	0.114	0.125
LOU-NH91	0.577	0.588	0.566	0.388	0.374	0.482	0.562	0.458	0.44	0.451	0.392	0.439	0.421	0.403	0.366	0.466	0.509	0.424	0.407	0.422
LU99A	0.147	0.152	0.137	0.131	0.161	0.168	0.207	0.124	0.102	0.128	0.192	0.158	0.164	0.146	0.162	0.189	0.132	0.117	0.155	0.172
NCI-H727	0.298	0.327	0.299	0.311	0.304	0.437	0.273	0.295	0.347	0.4						0.203	0.115	0.213	0.222	0.238
NCI-H1299						0.111	0.144	0.183	0.167	0.15						0.0879	0.112	0.133	0.152	0.145
NCI-H1563											0.525	0.571	0.505	0.41	0.47	0.684	0.541	0.563	0.612	0.629
NCI-H1648	0.217	0.48	0.339	0.342	0.245	0.624	0.794	0.294	0.278	0.226	0.258	0.323	0.329	0.274	0.311					
NCI-H1650	0.159	0.171	0.143	0.143	0.178	0.13	0.158	0.125	0.166	0.152	0.308	0.186	0.202	0.221	0.203					
NCI-H1703						0.0864	0.132	0.103	0.0868	0.158						0.0702	0.0548	0.068	0.0799	0.121
NCI-H1792						0.228	0.107	0.0578	0.134	0.101	0.126	0.0786	0.0748	0.0765	0.0786	0.366	0.261	0.119	0.115	0.066
NCI-H2170	0.267	0.195	0.161	0.155	0.0916	0.487	0.575	0.161	0.124	0.124	0.235	0.208	0.202	0.155	0.116					
NCI-H2342	0.28	0.288	0.267	0.234	0.265	0.276	0.281	0.192	0.206	0.259	0.262	0.288	0.277	0.259	0.251					
